By IC50 is commonly meant the concentration at which inhibition is half-maximal.

Experimental findings from ChEMBL document CHEMBL3639166, “Heteroaryloxyheterocyclyl compounds as PDE10 inhibitors” (2013) are described below.

The target in the assay is T1, cAMP and cAMP-inhibited cGMP 3',5'-cyclic phosphodiesterase 10A (Rattus norvegicus, UniProt Q9QYJ6).
T1 sequence (Q9QYJ6 whole entry): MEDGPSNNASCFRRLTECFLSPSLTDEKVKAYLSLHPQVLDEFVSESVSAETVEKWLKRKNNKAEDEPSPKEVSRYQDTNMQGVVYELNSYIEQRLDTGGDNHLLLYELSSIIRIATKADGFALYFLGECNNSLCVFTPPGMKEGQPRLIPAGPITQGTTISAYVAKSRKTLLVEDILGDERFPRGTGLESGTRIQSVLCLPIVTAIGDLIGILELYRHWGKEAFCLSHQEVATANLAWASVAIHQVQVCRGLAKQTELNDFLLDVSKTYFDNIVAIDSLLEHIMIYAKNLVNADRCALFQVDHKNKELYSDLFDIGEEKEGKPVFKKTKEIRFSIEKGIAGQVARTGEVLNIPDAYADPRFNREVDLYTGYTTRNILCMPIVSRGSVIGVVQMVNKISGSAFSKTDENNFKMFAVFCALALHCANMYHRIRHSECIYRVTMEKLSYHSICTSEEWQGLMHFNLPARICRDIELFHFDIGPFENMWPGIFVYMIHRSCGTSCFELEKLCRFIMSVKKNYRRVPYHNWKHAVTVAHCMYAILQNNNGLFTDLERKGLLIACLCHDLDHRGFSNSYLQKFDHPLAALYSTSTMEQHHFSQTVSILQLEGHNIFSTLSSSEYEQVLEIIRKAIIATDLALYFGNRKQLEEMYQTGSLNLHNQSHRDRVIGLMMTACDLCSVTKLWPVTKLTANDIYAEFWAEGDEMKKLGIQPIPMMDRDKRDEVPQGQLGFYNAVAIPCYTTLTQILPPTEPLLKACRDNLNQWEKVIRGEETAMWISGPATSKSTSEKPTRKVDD
Kind of assay: Enzyme Inhibition Assay: Enzyme activity: An IMAP TR-FRET assay was used to analyze the enzyme activity (Molecular Devices Corp., Sunnyvale, Calif).
The compound `CC(=O)N1CCC(c2nccnc2OC2CCN(c3ccccn3)CC2)CC1` gave an IC50 of 2850 nM.

The compound `CC(=O)N1CCC(c2nccnc2OC2CCN(c3cccc(C)n3)CC2)CC1` gave a concentration for half-maximal inhibition (IC50) of 1050 nM. Against the preceding compound, the IC50 is about 2.7-fold lower.

`CC(=O)N1CCC(c2nccnc2OC2CCN(c3ccc(C)cn3)CC2)CC1` returned an IC50 of 1620 nM.

For `CC(=O)N1CCC(c2nccnc2OC2CCN(c3cc(C)ccn3)CC2)CC1`, the IC50 was 997 nM.

For the compound `CC(=O)N1CCC(c2nccnc2OC2CCN(c3ncccc3C)CC2)CC1`, 3010 nM corresponded to half-maximal inhibition (IC50).

The compound `CC(=O)N1CCC(c2nccnc2OC2CCN(c3cccc(Cl)n3)CC2)CC1` came in with a 50% inhibitory concentration (IC50) of 235 nM.

`CC(=O)N1CCC(c2nccnc2OC2CCN(c3ccc(Cl)cn3)CC2)CC1` came in with a 50% inhibitory concentration (IC50) of 821 nM.

As to `CC(=O)N1CCC(c2nccnc2OC2CCN(c3cc(Cl)ccn3)CC2)CC1`, the IC50 worked out at 96 nM.

For the compound `CC(=O)N1CCC(c2nccnc2OC2CCN(c3ncccc3Cl)CC2)CC1`, the 50% inhibitory concentration (IC50) was found to be 1440 nM.

Turning to `CC(=O)N1CCC(c2cccnc2OC2CCN(c3ccccn3)CC2)CC1`, the IC50 amounted to 1080 nM.

With `CC(=O)N1CCC(c2cccnc2OC2CCN(c3cccc(C)n3)CC2)CC1`, the half-inhibitory concentration (IC50) amounted to 1180 nM.

With `CC(=O)N1CCC(c2cccnc2OC2CCN(c3ccc(C)cn3)CC2)CC1`, the IC50 was 1170 nM. The IC50 values of the last two compounds are within 1.5-fold of each other.

Compound `CC(=O)N1CCC(c2cccnc2OC2CCN(c3cc(C)ccn3)CC2)CC1` yielded an IC50 of 1770 nM.

Turning to `CC(=O)N1CCC(c2cccnc2OC2CCN(c3ncccc3C)CC2)CC1`, the IC50 stood at 1490 nM.

Regarding `CC(=O)N1CCC(c2cccnc2OC2CCN(c3cccc(Cl)n3)CC2)CC1`, the midpoint of inhibition, the IC50, lay at 558 nM.

As to `CC(=O)N1CCC(c2cccnc2OC2CCN(c3ccc(Cl)cn3)CC2)CC1`, the IC50 was 1200 nM.

`CC(=O)N1CCC(c2cccnc2OC2CCN(c3ncccc3Cl)CC2)CC1` showed a concentration for half-maximal inhibition (IC50) of 3580 nM.

`O=C(OCc1ccccc1)N1CCC(c2nc3ccccc3nc2OC2CN(c3ccc4ccccc4n3)C2)CC1` displayed a concentration for half-maximal inhibition (IC50) of 51.1 nM.

With `CC(C)(C)OC(=O)N1CCC(c2nc3ccccc3nc2OC2CN(c3ccc4ccccc4n3)C2)CC1`, the half-inhibitory concentration (IC50) was 115 nM.
